# Where “and” joins values, the source holds several entries; their conditions need not be identical. Equal values may be shown once.
# What was measured:
# [1] = system: N-type calcium channel; conditions: in vivo; cited from earlier work
# [2] = target: vanilloid receptor (VR1) in DRG neurons (Rattus norvegicus, UniProt O35433); assay: capsaicin screening by whole cell voltage clamp at -60 mV; conditions: 2 μM capsaicin, 128 responsive neurons
# Experimental: Viable neurons were identified using whole cell voltage clamp recordings based on the presence of robust voltage-gated sodium and potassium currents. Neurons were then exposed to 2 μM capsaicin (Sigma). After exposure, the bath was washed and the cell allowed to recover. Capsaicin-responsive cells had to recover after wash to be included. Capsaicin-non-responsive neurons were expose at least twice to capsaicin before the cell was collected and counted as capsaicin-non-responsive. Coverslips in the study were limited to two exposures of capsaicin to avoid desensitization. 1-2 MΩ microelectrodes were filled with an internal solution consisting of 90 mM KCl, 10 mM NaCl, 5 mM MgCl2, 40 mM HEPES, 5 mM EGTA and the pH was adjusted to 7.4 with KOH. The bath solution contained 140 mM NaCl, 5 mM KCl, 2 mM CaCl2, 0.5 mM MgCl2, 10 mM HEPES, and 15 mM Dextrose. […]
# Viable neurons were identified by the presence of robust voltage-gated sodium and potassium currents during brief depolarizations from a holding potential of −80 mV. […] Capsaicin-non-responsive neurons were exposed to capsaicin at least twice before the cell was harvested and counted as capsaicin-non-responsive. […] For capsaicin screening, currents were recorded using 1-2 MΩ microelectrodes filled with an internal solution consisting of 90 mM KCl, 10 mM NaCl, 5 mM MgCl2 40 mM HEPES, and 5 mM EGTA adjusted to a pH of 7.4 with KOH. […]
# [3] = system: N-type calcium current in neurons of the dorsal root ganglia; format: cell-based, rat
# [4] = system: CaV1.3 L-type channels; conditions: cited from earlier work
# Chain of vanilloid receptor (VR1) in DRG neurons (O35433 whole entry): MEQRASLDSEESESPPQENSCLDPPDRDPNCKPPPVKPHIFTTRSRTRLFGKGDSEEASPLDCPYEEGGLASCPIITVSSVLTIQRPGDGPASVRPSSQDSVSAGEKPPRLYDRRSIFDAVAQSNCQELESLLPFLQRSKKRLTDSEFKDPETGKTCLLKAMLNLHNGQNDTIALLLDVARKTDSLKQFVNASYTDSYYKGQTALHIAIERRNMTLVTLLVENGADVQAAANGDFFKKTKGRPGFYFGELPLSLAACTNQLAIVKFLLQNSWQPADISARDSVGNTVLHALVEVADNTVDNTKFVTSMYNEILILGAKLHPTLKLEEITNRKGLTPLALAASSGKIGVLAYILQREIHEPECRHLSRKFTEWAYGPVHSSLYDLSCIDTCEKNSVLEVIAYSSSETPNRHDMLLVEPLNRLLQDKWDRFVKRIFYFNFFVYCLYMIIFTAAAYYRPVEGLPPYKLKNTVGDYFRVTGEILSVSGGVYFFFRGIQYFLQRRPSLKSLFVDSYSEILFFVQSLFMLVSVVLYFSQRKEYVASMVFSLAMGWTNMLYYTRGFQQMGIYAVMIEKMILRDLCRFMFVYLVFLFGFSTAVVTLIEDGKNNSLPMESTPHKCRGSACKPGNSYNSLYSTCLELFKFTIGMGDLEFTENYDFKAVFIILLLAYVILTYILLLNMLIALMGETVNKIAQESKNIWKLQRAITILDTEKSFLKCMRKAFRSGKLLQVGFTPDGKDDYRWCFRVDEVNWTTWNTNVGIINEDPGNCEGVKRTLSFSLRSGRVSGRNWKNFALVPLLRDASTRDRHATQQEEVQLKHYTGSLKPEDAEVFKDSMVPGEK
molecule,measurement,setting,value
CSCC[C@@H]1NC(=O)[C@H](CC(C)C)NC(=O)[C@H](CCCNC(=N)N)NC(=O)[C@H](CO)NC(=O)[C@@H]2CSSC[C@@H]3NC(=O)[C@H](CO)NC(=O)CNC(=O)[C@H]([C@@H](C)O)NC(=O)[C@H](CSSC[C@H](N)C(=O)N[C@@H](CCCCN)C(=O)NCC(=O)N[C@@H](CCCCN)C(=O)NCC(=O)N[C@@H](C)C(=O)N[C@@H](CCCCN)C(=O)N2)NC(=O)[C@H](CSSC[C@@H](C(N)=O)NC(=O)[C@H](CCCCN)NC(=O)CNC(=O)[C@H](CO)NC(=O)[C@H](CCCNC(=N)N)NC3=O)NC(=O)[C@H](CC(=O)O)NC(=O)[C@H](Cc2ccc(O)cc2)NC1=O [MVIIA],analgesic activity,[1],powerful analgesic
same,side effects as analgesic,[1],undesirable side effects
COc1cc(CNC(=O)CCCC/C=C/C(C)C)ccc1O [capsaicin],average amplitude of capsaicin-induced inward current,[2],986±118 pA
ω-conotoxin GVIA (CKSPGSSCSPTSYNCCRSCNPYTKRCY) [ω-Ctx GVIA],ω-Ctx GVIA-sensitive current as % of the total whole cell calcium current,[3],71±2% and 68±2%
same,"ω-Ctx GVIA-sensitive, N-type current as component of the total Ca current",[3],~70%
same,effect on CaV1.3 L-type current,[4],inhibited by high concentrations
same,effect on neuronal CaV1.3 L-type channels,[4],not ω-Ctx GVIA-sensitive

# Source: patent US20040214238A1 (priority 2003, published 2004)
